Assay results taken from ChEMBL document CHEMBL3727342, “Compounds and methods for kinase modulation, and indications therefor” (2012).

What was measured:
[1] = target: Mast/stem cell growth factor receptor Kit (Homo sapiens, UniProt P10721); assay: Inhibition of Kit (unknown origin) expressed in Escherichia coli
[2] = target: RAF proto-oncogene serine/threonine-protein kinase (Homo sapiens, UniProt P04049); assay: Inhibition of human C-raf using biotin-MEK1 substrate incubated for 1 hr
[3] = target: Tyrosine-protein kinase BTK (Homo sapiens, UniProt Q06187); assay: Inhibition of Btk (unknown origin) by FRET assay
[4] = target: Proto-oncogene tyrosine-protein kinase Src (Homo sapiens, UniProt P12931); assay: Inhibition of Src (unknown origin) expressed in Escherichia coli using biotin-(E4Y)3 substrate
[5] = target: Vascular endothelial growth factor receptor 2 (Homo sapiens, UniProt P35968); assay: Inhibition of KDR (unknown origin) by FRET assay
[6] = target: Serine/threonine-protein kinase B-raf (Homo sapiens, UniProt P15056); assay: Inhibition of N-terminal GST-tagged human recombinant B-Raf (416 to end residues) using biotin-MEK1 substrate incubated for 1 hr

Measured: IC50

RAF proto-oncogene serine/threonine-protein kinase, sequence (P04049 whole entry): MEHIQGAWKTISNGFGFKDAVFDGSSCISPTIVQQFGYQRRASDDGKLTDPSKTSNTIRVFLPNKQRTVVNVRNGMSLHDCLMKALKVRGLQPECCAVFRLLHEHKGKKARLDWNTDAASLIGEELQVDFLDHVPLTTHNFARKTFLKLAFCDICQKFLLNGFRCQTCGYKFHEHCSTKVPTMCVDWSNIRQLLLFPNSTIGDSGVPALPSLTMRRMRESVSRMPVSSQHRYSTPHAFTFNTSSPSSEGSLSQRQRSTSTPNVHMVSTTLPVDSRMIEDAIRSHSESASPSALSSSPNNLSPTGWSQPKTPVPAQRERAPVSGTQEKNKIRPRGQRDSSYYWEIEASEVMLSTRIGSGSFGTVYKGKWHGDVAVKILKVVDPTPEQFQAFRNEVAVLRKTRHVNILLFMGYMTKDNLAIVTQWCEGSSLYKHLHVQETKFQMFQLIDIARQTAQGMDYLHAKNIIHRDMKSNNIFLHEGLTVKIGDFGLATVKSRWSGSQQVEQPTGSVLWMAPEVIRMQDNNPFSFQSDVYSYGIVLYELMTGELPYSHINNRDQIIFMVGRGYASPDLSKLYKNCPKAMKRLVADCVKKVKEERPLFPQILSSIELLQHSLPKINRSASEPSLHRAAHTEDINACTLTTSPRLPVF
Serine/threonine-protein kinase B-raf, sequence (P15056 whole entry): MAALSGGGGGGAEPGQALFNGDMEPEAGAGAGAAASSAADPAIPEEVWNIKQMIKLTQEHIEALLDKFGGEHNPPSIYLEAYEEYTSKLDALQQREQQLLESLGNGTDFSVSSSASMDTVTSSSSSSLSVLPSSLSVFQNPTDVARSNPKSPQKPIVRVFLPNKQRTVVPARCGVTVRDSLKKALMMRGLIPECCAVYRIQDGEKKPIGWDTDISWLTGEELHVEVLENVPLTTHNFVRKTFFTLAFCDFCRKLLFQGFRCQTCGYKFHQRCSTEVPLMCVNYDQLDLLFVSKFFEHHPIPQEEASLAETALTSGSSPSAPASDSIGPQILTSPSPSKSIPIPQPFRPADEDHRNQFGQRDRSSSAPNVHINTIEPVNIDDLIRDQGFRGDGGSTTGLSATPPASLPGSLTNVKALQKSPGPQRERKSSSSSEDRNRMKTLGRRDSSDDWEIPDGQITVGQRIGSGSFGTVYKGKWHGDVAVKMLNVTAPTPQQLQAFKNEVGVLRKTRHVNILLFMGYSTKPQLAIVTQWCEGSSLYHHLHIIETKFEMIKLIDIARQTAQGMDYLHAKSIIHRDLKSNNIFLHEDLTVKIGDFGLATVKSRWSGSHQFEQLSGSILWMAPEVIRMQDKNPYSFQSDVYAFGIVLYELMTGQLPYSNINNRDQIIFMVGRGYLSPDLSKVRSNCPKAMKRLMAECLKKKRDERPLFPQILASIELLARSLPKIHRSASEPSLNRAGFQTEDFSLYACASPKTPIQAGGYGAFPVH
Mast/stem cell growth factor receptor Kit, sequence (P10721 whole entry): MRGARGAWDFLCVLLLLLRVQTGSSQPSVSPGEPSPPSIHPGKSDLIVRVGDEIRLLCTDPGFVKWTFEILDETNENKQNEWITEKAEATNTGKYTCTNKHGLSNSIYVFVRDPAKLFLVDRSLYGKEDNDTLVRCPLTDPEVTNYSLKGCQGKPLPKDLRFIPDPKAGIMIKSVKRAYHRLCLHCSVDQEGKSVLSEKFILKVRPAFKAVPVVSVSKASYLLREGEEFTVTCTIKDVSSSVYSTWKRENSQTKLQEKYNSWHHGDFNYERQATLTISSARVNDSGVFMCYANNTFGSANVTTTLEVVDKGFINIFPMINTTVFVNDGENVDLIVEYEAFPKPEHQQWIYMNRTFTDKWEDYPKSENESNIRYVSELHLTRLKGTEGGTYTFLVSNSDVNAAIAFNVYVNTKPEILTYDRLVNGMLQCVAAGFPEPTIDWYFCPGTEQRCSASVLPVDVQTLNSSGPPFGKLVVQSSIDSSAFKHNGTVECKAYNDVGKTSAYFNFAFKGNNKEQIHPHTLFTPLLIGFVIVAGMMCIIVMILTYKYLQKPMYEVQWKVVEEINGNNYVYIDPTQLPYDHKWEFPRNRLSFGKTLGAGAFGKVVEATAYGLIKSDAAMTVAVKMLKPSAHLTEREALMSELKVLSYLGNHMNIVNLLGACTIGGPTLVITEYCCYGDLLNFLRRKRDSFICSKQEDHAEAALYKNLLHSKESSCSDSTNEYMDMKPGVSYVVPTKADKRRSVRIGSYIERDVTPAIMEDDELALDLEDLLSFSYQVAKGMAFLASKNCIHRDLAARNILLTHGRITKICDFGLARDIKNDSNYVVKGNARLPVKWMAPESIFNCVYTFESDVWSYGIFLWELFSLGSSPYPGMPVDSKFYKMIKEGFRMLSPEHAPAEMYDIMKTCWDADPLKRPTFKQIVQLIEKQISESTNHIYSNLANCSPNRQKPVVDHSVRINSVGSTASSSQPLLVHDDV
Vascular endothelial growth factor receptor 2, sequence (P35968 whole entry): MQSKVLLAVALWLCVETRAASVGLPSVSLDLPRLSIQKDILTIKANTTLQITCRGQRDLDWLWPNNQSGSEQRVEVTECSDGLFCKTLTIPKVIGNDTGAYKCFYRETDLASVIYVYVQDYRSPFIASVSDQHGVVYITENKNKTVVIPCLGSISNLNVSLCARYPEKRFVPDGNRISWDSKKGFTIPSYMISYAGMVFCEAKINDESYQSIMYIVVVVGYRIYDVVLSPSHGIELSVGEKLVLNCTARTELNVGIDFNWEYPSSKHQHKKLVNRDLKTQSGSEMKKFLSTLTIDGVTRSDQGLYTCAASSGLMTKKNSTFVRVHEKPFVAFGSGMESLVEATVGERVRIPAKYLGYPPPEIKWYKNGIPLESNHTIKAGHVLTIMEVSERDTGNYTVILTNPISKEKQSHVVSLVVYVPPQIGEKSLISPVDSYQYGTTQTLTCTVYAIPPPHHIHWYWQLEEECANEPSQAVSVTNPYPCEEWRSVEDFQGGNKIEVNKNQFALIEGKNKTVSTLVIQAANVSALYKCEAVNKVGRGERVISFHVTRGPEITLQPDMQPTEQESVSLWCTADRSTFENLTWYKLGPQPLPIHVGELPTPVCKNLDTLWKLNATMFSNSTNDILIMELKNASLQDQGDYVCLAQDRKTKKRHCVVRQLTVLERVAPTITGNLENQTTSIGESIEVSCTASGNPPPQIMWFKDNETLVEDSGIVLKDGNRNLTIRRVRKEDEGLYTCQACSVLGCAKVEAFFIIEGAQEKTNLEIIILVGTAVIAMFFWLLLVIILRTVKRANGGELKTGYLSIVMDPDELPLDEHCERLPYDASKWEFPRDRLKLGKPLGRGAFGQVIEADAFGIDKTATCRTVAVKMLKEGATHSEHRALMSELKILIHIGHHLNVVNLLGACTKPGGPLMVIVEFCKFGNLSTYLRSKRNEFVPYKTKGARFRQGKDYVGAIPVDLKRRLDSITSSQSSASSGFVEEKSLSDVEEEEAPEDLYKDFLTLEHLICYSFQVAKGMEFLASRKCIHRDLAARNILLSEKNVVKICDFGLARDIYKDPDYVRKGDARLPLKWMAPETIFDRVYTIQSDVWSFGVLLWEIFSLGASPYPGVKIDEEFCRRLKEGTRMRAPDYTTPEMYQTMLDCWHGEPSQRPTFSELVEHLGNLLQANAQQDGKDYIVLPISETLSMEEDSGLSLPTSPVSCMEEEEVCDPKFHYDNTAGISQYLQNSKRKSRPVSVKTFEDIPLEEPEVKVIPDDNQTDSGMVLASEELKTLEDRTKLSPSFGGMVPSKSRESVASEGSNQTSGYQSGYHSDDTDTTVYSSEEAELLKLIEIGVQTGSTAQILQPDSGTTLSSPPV
Proto-oncogene tyrosine-protein kinase Src, sequence (P12931 2-536 limits assumed): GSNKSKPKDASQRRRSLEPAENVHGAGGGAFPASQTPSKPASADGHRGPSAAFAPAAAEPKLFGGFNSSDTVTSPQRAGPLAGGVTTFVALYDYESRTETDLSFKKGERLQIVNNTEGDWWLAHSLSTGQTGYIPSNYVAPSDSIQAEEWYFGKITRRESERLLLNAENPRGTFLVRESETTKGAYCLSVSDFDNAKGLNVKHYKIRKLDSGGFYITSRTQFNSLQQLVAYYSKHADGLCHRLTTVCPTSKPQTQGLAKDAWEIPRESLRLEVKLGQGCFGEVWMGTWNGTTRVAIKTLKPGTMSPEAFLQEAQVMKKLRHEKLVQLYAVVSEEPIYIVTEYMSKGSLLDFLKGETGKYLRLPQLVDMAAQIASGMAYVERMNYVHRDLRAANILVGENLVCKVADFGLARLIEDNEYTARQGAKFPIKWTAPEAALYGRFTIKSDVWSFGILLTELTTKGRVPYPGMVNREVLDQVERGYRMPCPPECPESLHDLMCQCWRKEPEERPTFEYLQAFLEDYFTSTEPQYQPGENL
Tyrosine-protein kinase BTK, sequence (Q06187 whole entry): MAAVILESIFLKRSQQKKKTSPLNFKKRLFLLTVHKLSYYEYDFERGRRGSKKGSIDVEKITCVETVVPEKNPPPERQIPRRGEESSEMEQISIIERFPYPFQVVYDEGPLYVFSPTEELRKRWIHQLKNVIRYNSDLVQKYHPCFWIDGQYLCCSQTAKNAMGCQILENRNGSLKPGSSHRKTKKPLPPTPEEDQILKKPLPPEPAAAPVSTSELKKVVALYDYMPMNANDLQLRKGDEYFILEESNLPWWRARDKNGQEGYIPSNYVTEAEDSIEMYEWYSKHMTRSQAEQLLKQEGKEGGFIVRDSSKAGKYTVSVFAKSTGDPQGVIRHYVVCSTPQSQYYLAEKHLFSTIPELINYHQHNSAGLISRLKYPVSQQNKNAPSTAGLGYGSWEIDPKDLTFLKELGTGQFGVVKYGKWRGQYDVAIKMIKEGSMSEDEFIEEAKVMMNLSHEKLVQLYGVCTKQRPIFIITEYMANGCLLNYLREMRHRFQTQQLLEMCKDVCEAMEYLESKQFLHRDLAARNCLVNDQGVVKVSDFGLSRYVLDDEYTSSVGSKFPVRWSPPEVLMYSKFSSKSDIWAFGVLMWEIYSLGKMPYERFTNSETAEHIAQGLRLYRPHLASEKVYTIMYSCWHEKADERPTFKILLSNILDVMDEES

O=C(c1cccc(NS(=O)(=O)c2c(F)cccc2F)c1F)c1c[nH]c2ncncc12
≤ 10 µM: all assays above
